Laboratory results taken from patent US4443448A, “Indane derivatives, pharmaceutical compositions thereof and method of preparation” (priority 1980, dated 1984).
Read-outs that look alike come from different tables or passages of the source.

Columns and labels:
[1] = tested on: methylphenidate; experiment: Methylphenidate antagonism in mice; format: in vivo; details: for ED50: Mus musculus, ip, 2 h, read-out: MePh antag. ED50 2 hr i.p., mice, test substance i.p., 2 hr before methylphenidate 60 mg/kg s.c.
Protocol: Methylphenidate antagonism (ED50 mg/kg i.p.)
(§1) Perspex observation cages without bottom and lid, consisting of 5 sections each measuring 12×25×30 cm.
3×2 mice are used for each dose level. Two or 24 hours after injection of test substance, methylphenidate, 60 mg/kg, is injected s.c. After administration of methylphenidate the mice are placed in the observation cages, 2 in each cage, where they remain for exactly 1 hour. The cages were placed on corrugated paper, the corrugations facing upwards. It is examined whether the mice have been biting the corrugated paper or not. […] If one or more of the control pairs have not been biting, the test has to be repeated on a new set of mice.
The result is stated in fractions: 0/3, 1/3, 2/3 and 3/3 where 0, 1, 2 and 3 are the number of pairs which have not been biting on receipt of the dose in question.

[2] = tested on: amphetamine; experiment: Amphetamine antagonism in rats; format: in vivo; details: rats, p.o., amphetamine 10 mg/kg base i.v.; for ED50: Rattus norvegicus, po, read-out: Amphetamine antag. ED50 p.o.
Protocol: Amphetamine antagonism (ED50 mg/kg i.p.)
as §1
The test substance is given p.o. in a reasonable dose based on the determined LD50. Two or 24 hours later an intravaneous injection of amphetamine sulphate 13.6 mg/kg (10 mg/kg amphetamine base) is given, after which the rats are placed individually in the cages. The cages are placed on white corrugated paper. Five rats are used for each dose level. Observations are made after 55 minutes and 65 minutes-observation time: 1 minute. The animals are observed for stereotypy (movements of the head, compulsive gnawing). […] If the compound has full antagonistic effect another group of rats is used at a lower dose. […] The result is stated as fractions: 0/5, 1/5, 2/5, 3/5, 4/5 and 5/5, where 0, 1, 2, 3, 4 and 5 indicate the number of rats which have not shown stereotypy at the dose in question. The results are calculated as ED50 in mg/kg.

[3] = in vivo; design: species or system rats; details: for Ratio catalep./Amphet.: catalepsy ED50 / amphetamine antagonism ED50; for ED50: rat, in vivo, po
Protocol: A vertical wire netting (50 cm×49 cm). The meshes (openings) of the netting are square (1 cm×1 cm). The wire diameter is 2 mm.
The animals are labeled and used in groups of five. The test substance is administered orally (p.o) at 4 dose levels selected from the fixed dose scale.
The animals are placed in the middle of the vertical wire netting 60, 120, 180, 240, 300 and 360 minutes after administration of the test compound. The animals are considered cataleptic when they remain immobile during a period of 15 seconds.
This cataleptic reaction is designated +. If the rats are "atonic" and passively slide down the wire mesh they are considered not cataleptic. If the animals climb up and down the wire mesh they are nor cataleptic.
In both situations the designation--is used.

[4] = Mouse grid shock (analgesia); format: in vivo; details: mice, minimal effective dose, in mg/kg
Protocol: The mouse grid consists of a perspex cage with wire grid bottom and a perspex lid, on which is placed a microphone sensitive to the frequency of a mouse squeak. A stimulator with motordriven potentiometer applies a sequence of square wave impulses of continuously increasing milliamperage to the grid. Frequency of impulses 20 cycles/sec., duration 5 msec. Milliamperage is recorded on a digital amperemeter connected to the stimulator. Activation of the microphone by a mouse-squeak cuts off the current and the final milliamperage appears on the meter.
Five mice are used for each dose level. Each mouse serves as its own control.
Prior to the administration of test substance the animals are placed on the grid one at a time, and the pain threshold is determined by increasing the current intensity until the mouse squeaks. The pain threshold may be read on the milliamperemeter. Fifteen minutes and 30 minutes after administration of test substance the mice are tested again and the pain thresholds recorded.
Analgesic effect is present, when the pain threshold is increased over the pre-dosing value (control value). The results are stated as % increase in pain threshold calculated on the basis of the control value.
The registration can also be done as an on-line procedure. In this case the punching instruction and punching cards will be provided automatically and the results will be registered as a minimal effective dose (MED) determined after van der Waerdens X-test.

[5] = in vivo; details: iv
[6] = rats, p.o., strongest effect within first 6 hours, read-out: Catalep. (catalepsy wire mesh, rat, max, ED50)

Row | Structure (SMILES) | ED50 [1] | ED50 [2] | Ratio catalep./Amphet. [3] | ED50 [3, 6] | MED Grid Shock [4] | LD50 [5] | MePh antag. ED50 2 hr i.p. ([1]; mice, test substance i.p., 2 hr before methylphenidate 60 mg/kg s.c., 120 min) | Amphetamine antag. ED50 p.o. [2] | Catalep. (catalepsy wire mesh, rat, max, ED50) ([3]; rats, p.o., strongest effect within first 6 hours) | ED50 ([3]; Catalep. (catalepsy wire mesh, rat, max, ED50))
1 | OCCN1CCN([C@@H]2C[C@@H](c3ccc(F)cc3)c3ccc(F)cc32)CC1 (relative stereo) [Lu 13-117, 1-(2-hydroxyethyl)-4-(3-(4'-fluorophenyl)-6-fluoro-1-indanyl)piperazine] | 3 mg/kg | 6 mg/kg | 13 | 79 mg/kg | 0.63 | 113 mg/kg | – | – | – | –
2 | CN1CCN([C@@H]2C[C@@H](c3ccccc3)c3ccc(Cl)cc32)CC1 (relative stereo) [Lu 14-063] | 29 mg/kg | > 40 mg/kg | – | > 40 mg/kg | 5 | 80 mg/kg | – | – | – | –
3 | CN1CCN([C@@H]2C[C@H](c3ccc(F)cc3)c3ccc(Cl)cc32)CC1 (relative stereo) [Lu 14-069] | 5.7 mg/kg | > 20 mg/kg | – | > 40 mg/kg | 5 | 65 mg/kg | – | – | – | –
4 | Cc1ccc2c(c1)[C@H](N1CCN(C)CC1)C[C@H]2c1ccc(F)cc1 (relative stereo) [Lu 17-048] | 0.6 mg/kg | 6.7 mg/kg | 0.7 | 4.8 mg/kg | 0.16 | 80 mg/kg | – | – | – | –
5 | Cc1ccc2c(c1)[C@H](N1CCN(CCO)CC1)C[C@H]2c1ccc(F)cc1 (relative stereo) [Lu 17-050] | 3.4 mg/kg | 9.4 mg/kg | 0.8 | 7.7 mg/kg | 0.63 | 80 mg/kg | – | – | – | –
6 | CSc1ccc2c(c1)[C@H](N1CCN(CCO)CC1)C[C@H]2c1ccc(F)cc1 (relative stereo) [Lu 17-053] | 1.3 mg/kg | 9.1 mg/kg | – | 6.2 mg/kg | 2.5 | 68 mg/kg | – | – | – | –
7 | CSc1ccc2c(c1)[C@H](N1CCN(C)CC1)C[C@H]2c1ccc(F)cc1 (relative stereo) [Lu 17-055] | 1.2 mg/kg | 10 mg/kg | 0.7 | 7.2 mg/kg | 5 | 68 mg/kg | – | – | – | –
8 | O[C@H]1CC[C@H](CN2CCN(C3CC(c4ccc(F)cc4)c4ccc(F)cc43)CC2)CC1 (relative stereo) [Lu 17-059] | 4.3 mg/kg | 28 mg/kg | > 1.4 | > 40 mg/kg | 5 | 94 mg/kg | – | – | – | –
9 | OCCN1CCN([C@@H]2C[C@@H](c3ccc(F)cc3)c3cc(F)ccc32)CC1 (relative stereo) [Lu 17-075] | 6 mg/kg | > 40 mg/kg | – | > 40 mg/kg | 2.5 | 80 mg/kg | – | – | – | –
10 | CN1CCN([C@@H]2C[C@@H](c3ccc(F)cc3)c3ccc(Cl)cc32)CC1 (relative stereo) [Lu 17-121] | 2 mg/kg | 10 mg/kg | 0.3 | 3 mg/kg | 0.63 | 68 mg/kg | – | – | – | –
11 | OCCCN1CCN([C@@H]2C[C@@H](c3ccc(F)cc3)c3ccc(Cl)cc32)CC1 (relative stereo) [Lu 17-127] | 0.4 mg/kg | 0.3 mg/kg | 1.7 | 0.5 mg/kg | 0.31 | 80 mg/kg | – | – | – | –
12 | OCCN1CCN([C@@H]2C[C@@H](c3ccccc3)c3ccc(C(F)(F)F)cc32)CC1 (relative stereo) [Lu 18-089] | 2.2 mg/kg | 5 mg/kg | 0.5 | 2.7 mg/kg | 2.5 | 69 mg/kg | – | – | – | –
13 | CN1CCN(C2CC(c3ccc(F)cc3)c3ccc(F)cc32)CC1 (single isomer, unassigned; (+)) [Lu 17-151, (+) 1-Methyl-4-(3-(4'-fluorophenyl)-6-fluoro-1-indanyl) piperazine] | – | – | 2.7 | – | 0.63 | 113 mg/kg | 1.0 mg/kg | 6.1 mg/kg | 16.4 mg/kg | –
14 | CSc1ccc2c(c1)C(N1CCN(CCCO)CC1)CC2c1ccc(F)cc1 (stereo not shown) [Lu 17-068] | 0.8 mg/kg | 1.8 mg/kg | 0.7 | 1.3 mg/kg | 0.31 | 94 mg/kg | – | – | – | –
15 | Cc1ccc2c(c1)C(N1CCN(C(C)C)CC1)CC2c1ccc(F)cc1 (stereo not shown) [Lu 17-069] | 0.8 mg/kg | 5.6 mg/kg | 1.2 | 6.7 mg/kg | 0.63 | 56 mg/kg | – | – | – | –
16 | Fc1ccc(C2CC(N3CCN(CC4CCCCC4)CC3)c3cc(F)ccc32)cc1 (stereo not shown) [Lu 17-100] | 4 mg/kg | > 40 mg/kg | – | 40 mg/kg | 10 | 93 mg/kg | – | – | – | –
17 | CSc1ccc2c(c1)C(N1CCN(C(C)C)CC1)CC2c1ccc(F)cc1 (stereo not shown) [Lu 17-111] | 2.3 mg/kg | 7.8 mg/kg | 0.9 | 7.1 mg/kg | 1.3 | 69 mg/kg | – | – | – | –
18 | CC(C)N1CCN(C2CC(c3ccc(F)cc3)c3ccc(Cl)cc32)CC1 (stereo not shown) [Lu 17-129] | 0.8 mg/kg | 1.8 mg/kg | 0.4 | 0.8 mg/kg | 5 | 80 mg/kg | – | – | – | –
19 | CC(O)CN1CCN(C2CC(c3ccc(F)cc3)c3ccc(F)cc32)CC1 (stereo not shown) [Lu 17-143, 1-(2-hydroxy-1-propyl)-4-(3-(4'-fluorophenyl)-6-fluoro-1-indanyl)piperazine] | 1.2 mg/kg | 5.4 mg/kg | 3.1 | 16.6 mg/kg | < 1.3 | 130 mg/kg | – | – | – | –
20 | COc1ccc2c(c1)C(N1CCN(CCO)CC1)CC2c1ccc(F)cc1 (stereo not shown) [Lu 18-006] | 8.6 mg/kg | 16.6 mg/kg | 0.7 | 12 mg/kg | 5 | 113 mg/kg | – | – | – | –
21 | OCCN1CCN(C2CC(c3ccc(F)cc3)c3ccc(C(F)(F)F)cc32)CC1 (stereo not shown) [Lu 18-012] | 0.03 mg/kg | 0.16 mg/kg | 2 | – | 0.6 | 56 mg/kg | – | – | – | 0.3 mg/kg
22 | CC(C)c1ccc2c(c1)C(N1CCN(CCO)CC1)CC2c1ccc(F)cc1 (stereo not shown) [Lu 18-020] | 4.4 mg/kg | 9.4 mg/kg | 0.8 | 7.8 mg/kg | 5 | 57 mg/kg | – | – | – | –
23 | CN1CCN(C2CC(c3ccc(F)cc3)c3ccc(C(F)(F)F)cc32)CC1 (stereo not shown) [Lu 18-023] | 1.1 mg/kg | 0.2 mg/kg | 2 | 0.4 mg/kg | 1.25 | 94 mg/kg | – | – | – | –
24 | CN1CCN(C2CC(c3ccc(F)cc3)c3ccc(S(C)(=O)=O)cc32)CC1 (stereo not shown) [Lu 18-040] | 8.3 mg/kg | 12 mg/kg | 0.8 | 10 mg/kg | > 20 | 130 mg/kg | – | – | – | –
25 | OCCCN1CCN(C2CC(c3ccc(F)cc3)c3ccc(C(F)(F)F)cc32)CC1 (stereo not shown) [Lu 18-048] | 0.12 mg/kg | 0.16 mg/kg | 0.4 | 0.07 mg/kg | 1.3 | 57 mg/kg | – | – | – | –
